From patent US6524625B2, “Physiologically active extract obtained from indigo plant polygonum tinctorium” (Kabushiki Kaisha Hayashibara Seibutsu Kagaku Kenkyuto, priority 1998, dated 2003) come the findings set out here.

In test [1] the test system is HLC-1 cells. As to the kind of experiment: Antitumor action: growth inhibition, methylene blue staining. The format is cell-based. To be noted: Homo sapiens, 48 h, read-out: 50% growth inhibitory concentration. Here is the method:
(§1) Solutions in each well were serially diluted with a fresh preparation of the same RPMI1640 medium (pH 7.2) as used in the above. […] Each cell suspension was distributed to a microplate in a volume of 50 μl/well and incubated at 37° C. for 48 hours in a 5 v/v % CO2 incubator. To each microplate, a 25 v/v % aqueous glutaraldehyde solution was added in a volume of 20 μl/well, and the microplate was allowed to stand for 15 min to fix the cells. Then, the cells adhered to the wells were washed with water, admixed with a 0.05 w/v % aqueous methylene blue solution in a volume of 100 μl/well, and further allowed to stand for 15 min to stain the cells. Thereafter, an excessive amount of the staining solution was removed from the wells by washing with water, and the cells were dried, admixed with 300 μl/well of 0.33 N hydrochloric acid, stirred sufficiently, and measured for absorption at a wavelength of 620 nm. In parallel, as a control, a system free of a test sample was provided and treated similarly as in the test samples. […]

Test [2] deals with HGC-27 cells. The test is described as above. The following applies: Homo sapiens, HGC-27, 48 h, read-out: 50% growth inhibitory concentration. The class given is cell-based. The method, then: as §1
Test [3] has as its system HL-60 cells. The test is described as above. The format is cell-based. To be noted: Homo sapiens, HL-60, 48 h, read-out: 50% growth inhibitory concentration. Here is the method: as §1
Test [4] relates to HL-60 cells, HGC-27 cells, HLC-1 cells. In words: Antitumor action, comparison over the tumor cells of Table 10. The format is cell-based, human. The following applies: from the 50% growth inhibitory concentrations of Table 10. The source says:
Solutions in each well were serially diluted with a fresh preparation of the same RPMI1640 medium (pH 7.2) as used in the above.
HL-60 cells (ATCC CCL-240) derived from a patient with acute promyelocytic leukemia, HGC-27 cells (RCB0500) derived from a patient with gastric cancer, and HLC-1 cells (RCB0083) derived from a patient with lung adenocarcinoma were respectively suspended in fresh preparations of the same RPMI1640 medium (pH 7.2) as used in the above to give respective cell concentrations of 4×10^5 cells/ml, 4×10^5 cells/ml, and 2×10^6 cells/ml. Each cell suspension was distributed to a microplate in a volume of 50 μl/well and incubated at 37° C. for 48 hours in a 5 v/v % CO2 incubator. To each microplate, a 25 v/v % aqueous glutaraldehyde solution was added in a volume of 20 μl/well, and the microplate was allowed to stand for 15 min to fix the cells. Then, the cells adhered to the wells were washed with water, admixed with a 0.05 w/v % aqueous methylene blue solution in a volume of 100 μl/well, and further allowed to stand for 15 min to stain the cells. Thereafter, an excessive amount of the staining solution was removed from the wells by washing with water, and the cells were dried, admixed with 300 μl/well of 0.33 N hydrochloric acid, stirred sufficiently, and measured for absorption at a wavelength of 620 nm. […]

Test [5] concerns vesicular stomatitis virus (VSV). As to the kind of experiment: microbe, parasite or virus in culture. The class given is cell-based. To be noted: L929, 24 h, read-out: 50% Growth inhibitory concentration.

Structures are written as SMILES. In brackets after ≈: the same amount, converted by molar mass. A value given as a limit tells only on which side of the number the result lay.

With `O=C1c2ccccc2-n2c1nc1ccccc1c2=O` [Compound 1, 6,12-dihydro-6,12-dioxoindolo[2,1-b]quinazoline], the IC50 came to 2.2 µg/mL (≈ 8.86 µM) in test [1], 1.5 µg/mL (≈ 6.04 µM) in test [2], 4.2 µg/mL (≈ 16.9 µM) in test [3] and 13 µg/mL (≈ 52.4 µM) in test [5]. Besides, the “Antitumor action relative to Compound 2” value in test [4] is on record as at least 10 times.
